Measured values published in ChEMBL document CHEMBL1909046, “DrugMatrix in vitro pharmacology data”.

Target: T1, B2 bradykinin receptor (Homo sapiens, UniProt P30411); note: in other assays of this panel Not Active means under 50% inhibition at 10 µM
T1 sequence (P30411 whole entry): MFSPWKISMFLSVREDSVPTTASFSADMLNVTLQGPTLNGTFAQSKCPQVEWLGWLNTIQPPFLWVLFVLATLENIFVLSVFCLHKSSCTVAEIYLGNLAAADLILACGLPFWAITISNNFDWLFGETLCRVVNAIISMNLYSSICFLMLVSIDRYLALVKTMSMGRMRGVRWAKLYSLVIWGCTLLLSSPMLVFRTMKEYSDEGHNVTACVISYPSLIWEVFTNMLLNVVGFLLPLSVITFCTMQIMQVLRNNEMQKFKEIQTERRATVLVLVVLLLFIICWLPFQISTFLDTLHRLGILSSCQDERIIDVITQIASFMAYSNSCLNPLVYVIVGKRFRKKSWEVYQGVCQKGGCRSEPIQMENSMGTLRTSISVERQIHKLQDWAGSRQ
Assay type: cell membranes, Membrane
Conditions: chem-1

Structure (SMILES)	IC50
CC(CCc1ccccc1)NCC(O)c1ccc(O)c(C(N)=O)c1 (stereo not drawn) [LABETALOL]	Not Active
CC(C)[C@H](N)C(=O)OCCOCn1cnc2c(=O)nc(N)[nH]c21 [VALACYCLOVIR]	Not Active
COc1ccc(C(CN(C)C)C2(O)CCCCC2)cc1 (stereo not drawn) [VENLAFAXINE]	Not Active
CN(N=O)C(=O)N[C@@H](C=O)[C@@H](O)[C@H](O)[C@H](O)CO [STREPTOZOCIN]	Not Active

System: not listed separately
Test: DRUGMATRIX: Potassium Channel [KATP] radioligand binding (ligand: [3H] Glyburide)
Assay type: cell membranes, Membrane
Conditions: hit-t15; Not Active = under 50% inhibition at 10 µM

Structure (SMILES)	IC50	Ki
CC(CCc1ccccc1)NCC(O)c1ccc(O)c(C(N)=O)c1 (stereo not drawn) [LABETALOL]	Not Active	Not Active
CC(C)[C@H](N)C(=O)OCCOCn1cnc2c(=O)nc(N)[nH]c21 [VALACYCLOVIR]	Not Active	Not Active
COc1ccc(C(CN(C)C)C2(O)CCCCC2)cc1 (stereo not drawn) [VENLAFAXINE]	Not Active	Not Active
CN(N=O)C(=O)N[C@@H](C=O)[C@@H](O)[C@H](O)[C@H](O)CO [STREPTOZOCIN]	Not Active	Not Active

Target: Mitogen-activated protein kinase 3 (Homo sapiens, UniProt P27361)
Sequence (P27361 whole entry): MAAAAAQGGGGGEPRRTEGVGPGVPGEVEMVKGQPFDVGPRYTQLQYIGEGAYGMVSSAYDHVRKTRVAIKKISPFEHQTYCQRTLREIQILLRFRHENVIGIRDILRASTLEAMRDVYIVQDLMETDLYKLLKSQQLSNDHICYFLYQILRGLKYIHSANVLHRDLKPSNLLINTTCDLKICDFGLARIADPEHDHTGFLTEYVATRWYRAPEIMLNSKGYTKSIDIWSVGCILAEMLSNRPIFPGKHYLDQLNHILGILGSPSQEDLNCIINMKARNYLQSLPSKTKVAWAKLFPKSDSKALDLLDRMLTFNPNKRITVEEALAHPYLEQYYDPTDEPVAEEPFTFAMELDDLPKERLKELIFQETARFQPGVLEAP
Test: DRUGMATRIX: Protein Serine/Threonine Kinase, ERK1 enzyme inhibition (substrate: Myelin Basic Protein)
Parameters: species or system Escherichia coli
Conditions: Not Active = under 50% inhibition at 10 µM

Structure (SMILES)	IC50
CC(CCc1ccccc1)NCC(O)c1ccc(O)c(C(N)=O)c1 (stereo not drawn) [LABETALOL]	Not Active
CC(C)[C@H](N)C(=O)OCCOCn1cnc2c(=O)nc(N)[nH]c21 [VALACYCLOVIR]	Not Active
COc1ccc(C(CN(C)C)C2(O)CCCCC2)cc1 (stereo not drawn) [VENLAFAXINE]	Not Active
CN(N=O)C(=O)N[C@@H](C=O)[C@@H](O)[C@H](O)[C@H](O)CO [STREPTOZOCIN]	Not Active

Target: Protein phosphatase 3 catalytic subunit alpha (Homo sapiens, UniProt Q08209);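 note: inhibition of calcineurin (PP2B) enzyme activity, measured with DiFMUP as the substrate; in other assays of this panel Not Active means under 50% inhibition at 10 µM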
Parameters: species or system Escherichia coli
Conditions: not given

Structure (SMILES)	IC50
CC(CCc1ccccc1)NCC(O)c1ccc(O)c(C(N)=O)c1 (stereo not drawn) [LABETALOL]	Not Active
CC(C)[C@H](N)C(=O)OCCOCn1cnc2c(=O)nc(N)[nH]c21 [VALACYCLOVIR]	Not Active
COc1ccc(C(CN(C)C)C2(O)CCCCC2)cc1 (stereo not drawn) [VENLAFAXINE]	Not Active
CN(N=O)C(=O)N[C@@H](C=O)[C@@H](O)[C@H](O)[C@H](O)CO [STREPTOZOCIN]	Not Active

Target: T2, Substance-K receptor (Homo sapiens, UniProt P21452); note: in other assays of this panel Not Active means under 50% inhibition at 10 µM
T2 sequence (P21452 whole entry): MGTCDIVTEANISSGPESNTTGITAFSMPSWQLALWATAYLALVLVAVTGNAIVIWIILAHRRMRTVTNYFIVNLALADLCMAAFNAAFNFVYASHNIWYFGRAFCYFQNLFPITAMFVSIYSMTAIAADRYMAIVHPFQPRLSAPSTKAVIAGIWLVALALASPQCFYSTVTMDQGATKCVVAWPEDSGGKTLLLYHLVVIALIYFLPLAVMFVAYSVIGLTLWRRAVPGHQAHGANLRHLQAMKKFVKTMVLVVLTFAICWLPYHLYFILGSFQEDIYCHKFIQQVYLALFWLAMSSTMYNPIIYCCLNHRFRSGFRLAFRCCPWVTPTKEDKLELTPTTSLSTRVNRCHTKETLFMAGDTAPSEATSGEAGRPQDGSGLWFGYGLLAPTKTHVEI
Assay type: cell membranes, CHO, Membrane
Conditions: cho

Structure (SMILES)	IC50
CC(CCc1ccccc1)NCC(O)c1ccc(O)c(C(N)=O)c1 (stereo not drawn) [LABETALOL]	Not Active
CC(C)[C@H](N)C(=O)OCCOCn1cnc2c(=O)nc(N)[nH]c21 [VALACYCLOVIR]	Not Active
COc1ccc(C(CN(C)C)C2(O)CCCCC2)cc1 (stereo not drawn) [VENLAFAXINE]	Not Active
CN(N=O)C(=O)N[C@@H](C=O)[C@@H](O)[C@H](O)[C@H](O)CO [STREPTOZOCIN]	Not Active

Target: Nitric oxide synthase 1 (Rattus norvegicus, UniProt P29476); note: in other assays of this panel Not Active means under 50% inhibition at 10 µM
Sequence (P29476 whole entry): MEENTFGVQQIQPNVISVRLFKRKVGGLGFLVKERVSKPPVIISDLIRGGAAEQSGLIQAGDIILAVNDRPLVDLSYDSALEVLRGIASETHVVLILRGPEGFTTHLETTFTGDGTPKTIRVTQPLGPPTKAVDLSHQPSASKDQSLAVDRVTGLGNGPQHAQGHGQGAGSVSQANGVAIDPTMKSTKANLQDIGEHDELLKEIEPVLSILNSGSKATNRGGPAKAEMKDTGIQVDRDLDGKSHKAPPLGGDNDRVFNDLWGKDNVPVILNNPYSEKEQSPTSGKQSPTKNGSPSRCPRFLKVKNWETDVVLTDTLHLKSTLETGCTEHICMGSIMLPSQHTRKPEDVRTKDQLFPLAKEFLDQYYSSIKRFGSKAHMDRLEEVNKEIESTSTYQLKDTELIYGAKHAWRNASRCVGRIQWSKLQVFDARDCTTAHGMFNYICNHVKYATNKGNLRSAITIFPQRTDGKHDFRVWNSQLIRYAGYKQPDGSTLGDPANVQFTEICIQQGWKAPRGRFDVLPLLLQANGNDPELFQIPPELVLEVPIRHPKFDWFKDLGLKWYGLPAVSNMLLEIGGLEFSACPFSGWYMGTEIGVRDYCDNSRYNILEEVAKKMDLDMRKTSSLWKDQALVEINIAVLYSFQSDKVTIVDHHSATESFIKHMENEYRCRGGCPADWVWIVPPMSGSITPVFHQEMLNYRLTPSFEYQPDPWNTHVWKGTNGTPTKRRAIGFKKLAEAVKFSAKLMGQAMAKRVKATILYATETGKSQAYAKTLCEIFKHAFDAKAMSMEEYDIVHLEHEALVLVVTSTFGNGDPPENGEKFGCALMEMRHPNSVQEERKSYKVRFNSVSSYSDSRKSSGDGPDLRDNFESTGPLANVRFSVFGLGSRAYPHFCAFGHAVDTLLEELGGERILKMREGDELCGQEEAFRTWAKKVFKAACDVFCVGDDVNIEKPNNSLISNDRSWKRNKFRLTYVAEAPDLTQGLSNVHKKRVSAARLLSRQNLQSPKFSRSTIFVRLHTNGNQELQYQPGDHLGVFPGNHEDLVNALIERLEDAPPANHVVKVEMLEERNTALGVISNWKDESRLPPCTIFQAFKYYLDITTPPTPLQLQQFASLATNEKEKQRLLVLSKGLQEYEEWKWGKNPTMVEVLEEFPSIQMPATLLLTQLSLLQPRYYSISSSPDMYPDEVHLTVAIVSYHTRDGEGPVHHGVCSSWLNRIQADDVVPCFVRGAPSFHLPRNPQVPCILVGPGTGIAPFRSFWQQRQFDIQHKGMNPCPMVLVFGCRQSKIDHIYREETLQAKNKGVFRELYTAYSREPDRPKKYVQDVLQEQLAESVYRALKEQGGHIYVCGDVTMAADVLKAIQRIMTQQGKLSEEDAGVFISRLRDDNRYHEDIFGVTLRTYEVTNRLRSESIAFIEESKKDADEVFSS
Assay type: tissue-based, Cerebellum
Conditions: not given

Structure (SMILES)	IC50
CC(CCc1ccccc1)NCC(O)c1ccc(O)c(C(N)=O)c1 (stereo not drawn) [LABETALOL]	Not Active
CC(C)[C@H](N)C(=O)OCCOCn1cnc2c(=O)nc(N)[nH]c21 [VALACYCLOVIR]	Not Active
COc1ccc(C(CN(C)C)C2(O)CCCCC2)cc1 (stereo not drawn) [VENLAFAXINE]	Not Active
CN(N=O)C(=O)N[C@@H](C=O)[C@@H](O)[C@H](O)[C@H](O)CO [STREPTOZOCIN]	Not Active

Target: Acetylcholinesterase (Homo sapiens, UniProt P22303)
Sequence (P22303 whole entry): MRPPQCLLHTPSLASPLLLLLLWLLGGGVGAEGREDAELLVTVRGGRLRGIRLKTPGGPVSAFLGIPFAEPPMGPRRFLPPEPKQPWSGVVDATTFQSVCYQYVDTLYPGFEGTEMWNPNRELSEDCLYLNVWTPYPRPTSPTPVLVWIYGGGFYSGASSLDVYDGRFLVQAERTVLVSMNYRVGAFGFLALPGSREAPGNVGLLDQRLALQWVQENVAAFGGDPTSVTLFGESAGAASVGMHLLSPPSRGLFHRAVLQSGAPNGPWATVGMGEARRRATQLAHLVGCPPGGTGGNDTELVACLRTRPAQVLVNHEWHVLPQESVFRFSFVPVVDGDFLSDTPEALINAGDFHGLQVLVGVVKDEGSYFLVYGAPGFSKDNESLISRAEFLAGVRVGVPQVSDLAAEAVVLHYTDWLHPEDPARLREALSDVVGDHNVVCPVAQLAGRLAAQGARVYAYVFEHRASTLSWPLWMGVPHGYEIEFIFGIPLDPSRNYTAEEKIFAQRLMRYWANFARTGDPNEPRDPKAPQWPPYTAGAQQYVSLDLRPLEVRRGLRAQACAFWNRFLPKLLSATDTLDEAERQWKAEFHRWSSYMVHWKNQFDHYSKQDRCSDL
Test: DRUGMATRIX: Acetylcholinesterase enzyme inhibition (substrate: acetylthiocholine)
Assay type: cell-based, HEK293
Conditions: hek293; Not Active = under 50% inhibition at 10 µM

Structure (SMILES)	IC50
CC(CCc1ccccc1)NCC(O)c1ccc(O)c(C(N)=O)c1 (stereo not drawn) [LABETALOL]	Not Active
CC(C)[C@H](N)C(=O)OCCOCn1cnc2c(=O)nc(N)[nH]c21 [VALACYCLOVIR]	Not Active
COc1ccc(C(CN(C)C)C2(O)CCCCC2)cc1 (stereo not drawn) [VENLAFAXINE]	Not Active
CN(N=O)C(=O)N[C@@H](C=O)[C@@H](O)[C@H](O)[C@H](O)CO [STREPTOZOCIN]	Not Active

Target: T3, Alpha-2C adrenergic receptor (Homo sapiens, UniProt P18825)
T3 sequence (P18825 whole entry): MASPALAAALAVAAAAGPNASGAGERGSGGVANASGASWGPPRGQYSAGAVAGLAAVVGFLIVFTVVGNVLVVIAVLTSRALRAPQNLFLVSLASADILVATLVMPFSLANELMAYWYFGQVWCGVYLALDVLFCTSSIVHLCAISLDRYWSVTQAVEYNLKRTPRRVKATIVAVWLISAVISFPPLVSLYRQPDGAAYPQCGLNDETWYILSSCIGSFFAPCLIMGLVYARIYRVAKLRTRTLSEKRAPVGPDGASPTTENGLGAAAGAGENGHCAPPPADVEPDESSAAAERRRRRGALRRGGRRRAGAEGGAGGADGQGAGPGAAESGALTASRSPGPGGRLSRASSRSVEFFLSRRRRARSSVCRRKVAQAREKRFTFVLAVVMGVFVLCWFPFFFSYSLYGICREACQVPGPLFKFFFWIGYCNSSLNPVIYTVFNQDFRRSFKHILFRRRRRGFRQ
Test: DRUGMATRIX: Adrenergic Alpha-2C radioligand binding (ligand: [3H] MK-912)
Assay type: cell membranes, Sf9, Membrane
Conditions: sf9

Structure (SMILES)	IC50
CC(CCc1ccccc1)NCC(O)c1ccc(O)c(C(N)=O)c1 (stereo not drawn) [LABETALOL]	Not Active
CC(C)[C@H](N)C(=O)OCCOCn1cnc2c(=O)nc(N)[nH]c21 [VALACYCLOVIR]	Not Active
COc1ccc(C(CN(C)C)C2(O)CCCCC2)cc1 (stereo not drawn) [VENLAFAXINE]	Not Active
CN(N=O)C(=O)N[C@@H](C=O)[C@@H](O)[C@H](O)[C@H](O)CO [STREPTOZOCIN]	Not Active

System: not listed separately
Test: DRUGMATRIX: GABAA, Chloride Channel, TBOB radioligand binding (ligand: [3H] TBOB)
Assay type: cell membranes, Rattus norvegicus, Wistar, Cerebral cortex, Membrane
Conditions: Not Active = under 50% inhibition at 10 µM

Structure (SMILES)	IC50	Ki
CC(CCc1ccccc1)NCC(O)c1ccc(O)c(C(N)=O)c1 (stereo not drawn) [LABETALOL]	Not Active	Not Active
CC(C)[C@H](N)C(=O)OCCOCn1cnc2c(=O)nc(N)[nH]c21 [VALACYCLOVIR]	Not Active	Not Active
COc1ccc(C(CN(C)C)C2(O)CCCCC2)cc1 (stereo not drawn) [VENLAFAXINE]	Not Active	Not Active
CN(N=O)C(=O)N[C@@H](C=O)[C@@H](O)[C@H](O)[C@H](O)CO [STREPTOZOCIN]	Not Active	Not Active

System: not listed separately
Test: DRUGMATRIX: Platelet-Derived Growth Factor (PDGF) radioligand binding (ligand: [125I] PDGF)
Assay type: cell-based
Conditions: nih3t3; Not Active = under 50% inhibition at 10 µM

Structure (SMILES)	IC50	Ki
CC(CCc1ccccc1)NCC(O)c1ccc(O)c(C(N)=O)c1 (stereo not drawn) [LABETALOL]	Not Active	Not Active
CC(C)[C@H](N)C(=O)OCCOCn1cnc2c(=O)nc(N)[nH]c21 [VALACYCLOVIR]	Not Active	Not Active
COc1ccc(C(CN(C)C)C2(O)CCCCC2)cc1 (stereo not drawn) [VENLAFAXINE]	Not Active	Not Active
CN(N=O)C(=O)N[C@@H](C=O)[C@@H](O)[C@H](O)[C@H](O)CO [STREPTOZOCIN]	Not Active	Not Active

Target: Adenosine receptor A2a (Homo sapiens, UniProt P29274)
Sequence (P29274 whole entry): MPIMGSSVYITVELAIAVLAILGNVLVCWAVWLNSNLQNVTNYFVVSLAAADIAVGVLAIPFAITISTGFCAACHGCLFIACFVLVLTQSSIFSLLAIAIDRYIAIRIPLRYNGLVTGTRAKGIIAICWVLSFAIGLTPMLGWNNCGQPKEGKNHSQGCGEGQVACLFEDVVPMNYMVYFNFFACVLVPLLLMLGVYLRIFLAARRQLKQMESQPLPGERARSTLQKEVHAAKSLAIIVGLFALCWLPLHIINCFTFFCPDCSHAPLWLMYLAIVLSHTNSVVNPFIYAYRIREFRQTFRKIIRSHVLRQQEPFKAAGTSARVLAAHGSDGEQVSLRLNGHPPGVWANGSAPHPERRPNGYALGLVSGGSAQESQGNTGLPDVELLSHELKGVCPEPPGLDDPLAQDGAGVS
Test: DRUGMATRIX: Adenosine A2A radioligand binding (ligand: […])
Assay type: cell membranes, HEK293, Membrane
Conditions: hek293; Not Active = under 50% inhibition at 10 µM

Structure (SMILES)	IC50
CC(CCc1ccccc1)NCC(O)c1ccc(O)c(C(N)=O)c1 (stereo not drawn) [LABETALOL]	Not Active
CC(C)[C@H](N)C(=O)OCCOCn1cnc2c(=O)nc(N)[nH]c21 [VALACYCLOVIR]	Not Active
COc1ccc(C(CN(C)C)C2(O)CCCCC2)cc1 (stereo not drawn) [VENLAFAXINE]	Not Active
CN(N=O)C(=O)N[C@@H](C=O)[C@@H](O)[C@H](O)[C@H](O)CO [STREPTOZOCIN]	Not Active

Target: Cannabinoid receptor 1 (Homo sapiens, UniProt P21554); note: in other assays of this panel Not Active means under 50% inhibition at 10 µM
Sequence (P21554 whole entry): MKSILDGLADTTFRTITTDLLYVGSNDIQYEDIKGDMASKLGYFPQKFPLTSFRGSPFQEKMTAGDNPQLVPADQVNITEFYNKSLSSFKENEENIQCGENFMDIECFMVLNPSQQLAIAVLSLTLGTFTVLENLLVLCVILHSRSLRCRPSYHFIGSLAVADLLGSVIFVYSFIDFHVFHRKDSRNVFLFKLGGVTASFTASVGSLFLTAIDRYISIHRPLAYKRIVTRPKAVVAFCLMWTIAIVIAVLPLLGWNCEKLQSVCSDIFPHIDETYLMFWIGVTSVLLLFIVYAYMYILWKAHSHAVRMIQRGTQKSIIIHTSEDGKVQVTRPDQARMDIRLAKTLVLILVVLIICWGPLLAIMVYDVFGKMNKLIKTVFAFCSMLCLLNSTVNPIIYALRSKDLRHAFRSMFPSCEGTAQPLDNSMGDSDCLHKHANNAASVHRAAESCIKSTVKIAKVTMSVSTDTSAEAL
Assay type: cell membranes, Membrane
Conditions: chem-1

Structure (SMILES)	IC50
CC(CCc1ccccc1)NCC(O)c1ccc(O)c(C(N)=O)c1 (stereo not drawn) [LABETALOL]	Not Active
CC(C)[C@H](N)C(=O)OCCOCn1cnc2c(=O)nc(N)[nH]c21 [VALACYCLOVIR]	Not Active
COc1ccc(C(CN(C)C)C2(O)CCCCC2)cc1 (stereo not drawn) [VENLAFAXINE]	Not Active
CN(N=O)C(=O)N[C@@H](C=O)[C@@H](O)[C@H](O)[C@H](O)CO [STREPTOZOCIN]	Not Active

Target: T4, C-X-C chemokine receptor type 1 (Homo sapiens, UniProt P25024); note: in other assays of this panel Not Active means under 50% inhibition at 10 µM
T4 sequence (P25024 whole entry): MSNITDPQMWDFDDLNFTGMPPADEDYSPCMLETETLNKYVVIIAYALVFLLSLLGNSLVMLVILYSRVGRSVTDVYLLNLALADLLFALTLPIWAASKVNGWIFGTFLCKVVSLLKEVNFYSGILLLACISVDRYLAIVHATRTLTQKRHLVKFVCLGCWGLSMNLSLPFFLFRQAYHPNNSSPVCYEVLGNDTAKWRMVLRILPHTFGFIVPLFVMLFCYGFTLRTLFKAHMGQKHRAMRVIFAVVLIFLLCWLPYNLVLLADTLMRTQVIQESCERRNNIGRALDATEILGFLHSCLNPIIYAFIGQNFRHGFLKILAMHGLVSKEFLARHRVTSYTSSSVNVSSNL
Conditions: not given

Structure (SMILES)	IC50
CC(CCc1ccccc1)NCC(O)c1ccc(O)c(C(N)=O)c1 (stereo not drawn) [LABETALOL]	Not Active
CC(C)[C@H](N)C(=O)OCCOCn1cnc2c(=O)nc(N)[nH]c21 [VALACYCLOVIR]	Not Active
COc1ccc(C(CN(C)C)C2(O)CCCCC2)cc1 (stereo not drawn) [VENLAFAXINE]	Not Active
CN(N=O)C(=O)N[C@@H](C=O)[C@@H](O)[C@H](O)[C@H](O)CO [STREPTOZOCIN]	Not Active

Target: cGMP-specific 3',5'-cyclic phosphodiesterase (Homo sapiens, UniProt O76074)
Test: DRUGMATRIX: Phosphodiesterase PDE5 enzyme inhibition (substrate: [3H]cGMP + cGMP)
Assay type: tissue-based, Platelet
Conditions: platelet; Not Active = under 50% inhibition at 10 µM

Structure (SMILES)	IC50
CC(CCc1ccccc1)NCC(O)c1ccc(O)c(C(N)=O)c1 (stereo not drawn) [LABETALOL]	Not Active
CC(C)[C@H](N)C(=O)OCCOCn1cnc2c(=O)nc(N)[nH]c21 [VALACYCLOVIR]	Not Active
COc1ccc(C(CN(C)C)C2(O)CCCCC2)cc1 (stereo not drawn) [VENLAFAXINE]	Not Active
CN(N=O)C(=O)N[C@@H](C=O)[C@@H](O)[C@H](O)[C@H](O)CO [STREPTOZOCIN]	Not Active
